US20240400572A1, “COMPOUNDS AND METHODS FOR TREATING CANCERS THAT ARE MGMT DEFICIENT REGARDLESS OF MMR STATUS” (Yale University, priority 2021, published 2024)
Where “and” joins values, the source holds several entries; their conditions need not be identical. Identical values can stand only once. Like-named read-outs stand apart in the source and are kept apart here.

Assay: Pharmacokinetic study, plasma
Format: in vivo
Conditions: male C57BL/6 mice; for plasma Concentration, Individuals / AUC(0-inf) / AUC(0-t) / Cmax / MRT inf / Tmax / half-life: PO 20 mg/kg; for plasma Concentration, Individuals / concentration at 0.083 hr / concentration at 0.167 hr / concentration at 0.333 hr / concentration at 0.5 hr / concentration at 0.75 hr / concentration at 1 hr / concentration at 2 hr / concentration at 4 hr / concentration at 8 hr: 20 mg/kg; for concentration at 0.083 hr / concentration at 0.167 hr / concentration at 0.333 hr / concentration at 0.5 hr / concentration at 0.75 hr / concentration at 1 hr / concentration at 2 hr / concentration at 4 hr / concentration at 8 hr: male, C57BL/6, mouse, po; for concentration at 0.083 hr / concentration at 0.167 hr / concentration at 0.333 hr / concentration at 0.5 hr / concentration at 0.75 hr / concentration at 1 hr / concentration at 2 hr / concentration at 4 hr / concentration at 8 hr / AUC(0-inf) / AUC(0-t) / Cmax / MRT inf / Tmax / half-life: plasma; for concentration at 8 hr: N=3; for AUC(0-inf) / AUC(0-t) / Cmax / MRT inf / Tmax / half-life: mouse
Experimental: Compound KL50 dosing solution: 3.39% DMSO+96.61% (10% HP-β-CD in saline) at 2 mg/mL; • 1) Weigh 17.39 mg of compound KL50 into a clean tube. • 2) Add 0.295 mL DMSO into the tube containing the compound. • 3) Vortex the tube for 3 min and sonicate it for 4 min. • 4) Add 8.400 mL 10% HP-β-CD in saline into the tube and vortex the tube for 3 min. Compound I-1 dosing solution: 3.39% DMSO+96.61% (10% HP-β-CD in saline) at 2 mg/mL; • 1) Weigh 16.86 mg Compound I-1 into a clean tube. • 2) Add 0.286 mL DMSO into the tube containing the compound. • 3) Vortex the tube for 3 min and sonicate it for 4 min. • 4) Add 8.144 mL 10% HP-β-CD in saline into the tube and vortex the tube for 3 min.
The in-vivo pharmacokinetic and brain distribution study was conducted under the following parameters. Twenty seven C57BL/6 male mice were purchased from Shanghai JiHui Laboratory Animal Co. LTD. Each mouse weighted from 16 g to 17 g. The mice were fasted overnight and fed post 4 hr sampling. Compound KL50 and Compound I-I were administered via oral gavage (PO) at a dose of 20 mg/kg (10 mL/kg). After dosing, sampling was completed at 0.083, 0.167, 0.333, 0.5, 0.75, 1, 2, 4 and 8 hr post dose, with three mice sacrificed at each time point.
Terminal bleeding for plasma and brain was completed at each time point. Approximately 110 μL blood per time point was collected into a K2EDTA tube via the facial vein. The blood sample was put on wet ice and centrifuged to obtain plasma sample (2000 g, 5 min under 4° C.) within 15 minutes. Plasma samples were acidified with 6 μL of formic acid for every 54 μL of plasma. After blood collection, a mid-line incision was made in the animal's scalp and the skin was retracted. The skull overlying the brain was removed. Then, the whole brain was collected, rinsed with cold saline, dried on filtrate paper, and weighed; and then snap frozen by placing the brain into dry-ice. Plasma samples were stored at approximately −70° C. until analysis. Brain tissue was homogenized with 3 volumes (v/w) of PBS (1% FA) and then analyzed with LC-MS/MS. The concentration of study drug was corrected with a dilution factor of four as following: Brain concentration=brain homogenate conc.×4, assuming 1 g wet brain tissue equals to 1 mL

[1] = 0.083 hr, N=3, read-out: plasma Concentration, Mean
[2] = 0.083 hr, read-out: plasma Concentration, Individuals
[3] = 0.167 hr, N=3, read-out: plasma Concentration, Mean
[4] = 0.167 hr, read-out: plasma Concentration, Individuals
[5] = 0.333 hr, N=3, read-out: plasma Concentration, Mean
[6] = 0.333 hr, read-out: plasma Concentration, Individuals
[7] = 0.5 hr, N=3, read-out: plasma Concentration, Mean
[8] = 0.5 hr, read-out: plasma Concentration, Individuals
[9] = 0.75 hr, N=3, read-out: plasma Concentration, Mean
[10] = 0.75 hr, read-out: plasma Concentration, Individuals
[11] = 1 hr, N=3, read-out: plasma Concentration, Mean
[12] = 1 hr, read-out: plasma Concentration, Individuals
[13] = 2 hr, N=3, read-out: plasma Concentration, Mean
[14] = 4 hr, N=3, read-out: plasma Concentration, Mean

NC(=O)c1ncn2c(=O)n(CCF)nnc12 [KL-50, 3-(2-fluoroethyl)-4-oxo-3H,4H-imidazo[4,3-d][1,2,3,5]tetrazine-8-carboxamide]
plasma Concentration, Individuals (0.083 hr): 25600 ng/mL and 28000 ng/mL | plasma Concentration, Individuals (0.167 hr): 22900 ng/mL and 18100 ng/mL | plasma Concentration, Individuals (0.333 hr): 14500 ng/mL and 20900 ng/mL | plasma Concentration, Individuals (0.5 hr): 12400 ng/mL and 15300 ng/mL | plasma Concentration, Individuals (0.75 hr): 11000 ng/mL and 10200 ng/mL | plasma Concentration, Individuals (1 hr): 7340 ng/mL and 12300 ng/mL | plasma Concentration, Individuals (2 hr): 2750 ng/mL and 4570 ng/mL | plasma Concentration, Individuals (4 hr): 1590 ng/mL and 796 ng/mL | plasma Concentration, Individuals (8 hr): 305 ng/mL and 104 ng/mL and 185 ng/mL | concentration at 0.083 hr [1]: 25300 ng/mL | concentration at 0.083 hr [2]: 22300 ng/mL | concentration at 0.167 hr [3]: 21800 ng/mL | concentration at 0.167 hr [4]: 24500 ng/mL | concentration at 0.333 hr [5]: 18100 ng/mL | concentration at 0.333 hr [6]: 19000 ng/mL | concentration at 0.5 hr [7]: 14000 ng/mL | concentration at 0.5 hr [8]: 14400 ng/mL | concentration at 0.75 hr [9]: 10300 ng/mL | concentration at 0.75 hr [10]: 9590 ng/mL | concentration at 1 hr [11]: 10000 ng/mL | concentration at 1 hr [12]: 10500 ng/mL | concentration at 2 hr [13]: 3300 ng/mL | concentration at 2 hr (2 hr, read-out: plasma Concentration, Individuals): 2580 ng/mL | concentration at 4 hr [14]: 1150 ng/mL | concentration at 4 hr (4 hr, read-out: plasma Concentration, Individuals): 1060 ng/mL | concentration at 8 hr (8 hr): 198 ng/mL | AUC(0-inf): 28800 ng·h/mL | AUC(0-t): 28400 ng·h/mL | Cmax: 25300 ng/mL | MRT inf: 88.2 min | Tmax: 4.98 min | half-life: 89.4 min

CNC(=O)c1ncn2c(=O)n(CCF)nnc12 [Compound I-1, 3-(2-fluoroethyl)-N-methyl-4-oxo-3H,4H-imidazo[4,3-d][1,2,3,5]tetrazine-8-carboxamide]
plasma Concentration, Individuals (0.083 hr): 20300 ng/mL and 20500 ng/mL | plasma Concentration, Individuals (0.167 hr): 15000 ng/mL and 16600 ng/mL | plasma Concentration, Individuals (0.333 hr): 11300 ng/mL and 13400 ng/mL | plasma Concentration, Individuals (0.5 hr): 7050 ng/mL and 7190 ng/mL | plasma Concentration, Individuals (0.75 hr): 4010 ng/mL and 3430 ng/mL | plasma Concentration, Individuals (1 hr): 1520 ng/mL and 2430 ng/mL | plasma Concentration, Individuals (2 hr): 359 ng/mL and 714 ng/mL and 185 ng/mL | plasma Concentration, Individuals (4 hr): 5.01 ng/mL and 2.42 ng/mL and 3.21 ng/mL | plasma Concentration, Individuals (8 hr): 2.65 ng/mL and 5.63 ng/mL and 7.33 ng/mL | concentration at 0.083 hr [1]: 20700 ng/mL | concentration at 0.083 hr [2]: 21200 ng/mL | concentration at 0.167 hr [3]: 14300 ng/mL | concentration at 0.167 hr [4]: 11300 ng/mL | concentration at 0.333 hr [5]: 11200 ng/mL | concentration at 0.333 hr [6]: 8830 ng/mL | concentration at 0.5 hr [7]: 6850 ng/mL | concentration at 0.5 hr [8]: 6300 ng/mL | concentration at 0.75 hr [9]: 3810 ng/mL | concentration at 0.75 hr [10]: 3980 ng/mL | concentration at 1 hr [11]: 2040 ng/mL | concentration at 1 hr [12]: 2180 ng/mL | concentration at 2 hr [13]: 419 ng/mL | concentration at 4 hr [14]: 3.55 ng/mL | concentration at 8 hr (8 hr): 5.2 ng/mL | AUC(0-inf): 9680 ng·h/mL | AUC(0-t): 9680 ng·h/mL | Cmax: 20700 ng/mL | MRT inf: 32.2 min | Tmax: 4.98 min | half-life: 37.3 min
